Measurements from patent US20240317708A1, “INHIBITORS OF TRANSGLUTAMINASES” (ZEDIRA GMBH, priority 2021, published 2024).

How the values were obtained:
[1] = Log D shake flask method (octanol / PBS pH 7.4, HPLC); format: physicochemical; settings: octanol/phosphate-buffered saline (PBS); octanol / PBS pH 7.4, shake flask
Method: In order to classify the inventive compounds according to their lipophilicity, Log D values (distribution coefficient) were determined by means of the well-established shake flask method, measuring the partition of a compound between an octanol and phosphate-buffered saline (PBS, pH 7.4) by HPLC.

[2] = Caco-2 permeability assay (CacoReady kit); format: in vitro ADME; settings: human
Method: Permeability coefficients (Papp values) were obtained from Caco-2 barrier studies predicting oral/intestinal bioavailability of the tested compounds. The assays were performed by using CacoReady™ ready-to-use kits from ReadyCell according to the manufacturers protocol.

[3] = target: T1, recombinant human transglutaminase 2 (Homo sapiens, UniProt P21980); test: Transglutaminase assay (dansylcadaverine incorporation into dimethylcasein, DCC-assay); format: biochemical; settings: for IC50: recombinant human TG2 10 nM, dansylcadaverine/dimethylcasein, 37° C.
T1 construct: purchased Zedira T022
T1 sequence (P21980 1-687): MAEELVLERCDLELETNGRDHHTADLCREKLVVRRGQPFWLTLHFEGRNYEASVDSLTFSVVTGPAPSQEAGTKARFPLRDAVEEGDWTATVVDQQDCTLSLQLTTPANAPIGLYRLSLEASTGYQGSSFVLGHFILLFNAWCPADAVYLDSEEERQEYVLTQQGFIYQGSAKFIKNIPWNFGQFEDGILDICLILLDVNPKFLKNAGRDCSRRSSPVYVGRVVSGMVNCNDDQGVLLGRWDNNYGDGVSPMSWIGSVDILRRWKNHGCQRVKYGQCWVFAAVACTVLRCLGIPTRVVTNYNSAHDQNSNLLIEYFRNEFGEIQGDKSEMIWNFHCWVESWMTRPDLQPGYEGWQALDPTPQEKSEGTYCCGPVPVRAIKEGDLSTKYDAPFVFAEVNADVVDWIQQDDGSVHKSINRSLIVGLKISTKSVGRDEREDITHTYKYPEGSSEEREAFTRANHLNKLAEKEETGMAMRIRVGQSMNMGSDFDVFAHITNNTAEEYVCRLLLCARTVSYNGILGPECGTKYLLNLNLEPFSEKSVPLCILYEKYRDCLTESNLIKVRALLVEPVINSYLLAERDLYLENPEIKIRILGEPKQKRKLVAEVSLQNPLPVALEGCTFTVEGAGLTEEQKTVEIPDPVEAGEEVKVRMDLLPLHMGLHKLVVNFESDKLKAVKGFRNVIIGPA
Method: For the determination of potency of inhibitors against tissue transglutaminase, the incorporation of dansylcadaverine into dimethylcasein (Zedira product T036, Lorand et al., Anal Biochem, 1971, 44:221-31) was measured using recombinant human transglutaminase 2 (Zedira Product T022).
The tissue transglutaminase is diluted in buffer (50 mM Tris-HCl, 7.5 mM CaCl2, 150 mM NaCl, pH=7.4). The final concentration of TG2 in the assay is 10 nM.
A 10 mM inhibitor stock solution is prepared in DMSO, and from this a serial 1:2-fold dilution series is prepared also in DMSO. Each of the initial dilutions is subsequently diluted 1:50-fold with buffer (50 mM Tris-HCl, 7.5 mM CaCl2, 150 mM NaCl, pH=7.4) to yield the final working dilutions containing 2% (v/v) DMSO.
15 μl of inhibitor working dilution are added per well of a 96 well microtiter plate. As control, 15 μl of a 2% (v/v) DMSO solution prepared using the buffer mentioned above are added per well.
Immediately before starting the assay, 600 μl transglutaminase working solution are added to 11.4 ml assay buffer (50 mM Tris-HCl, 10 mM CaCl2, 10 mM glutathione, 2.5% glycerol, 16.7 μM dansylcadaverine, 4 μM N,N-dimethylcasein, 200 mM NaCl, pH=8.0). 285 μl of this reaction mix are added per well containing the inhibitor.
Increase in fluorescence is measured using λex=330 nm and λem=500 nm at 37° C. for 30 min. A slope of the increase in fluorescence between 20 and 30 min is calculated for determination of the IC50 value (inhibitor concentration at which 50% of the initial activity is blocked).
Analysis of enzymatic activity is performed by calculation of the slope of an increase in fluorescence intensity. IC50 values are calculated by plotting the enzymatic activity (as percentage from control containing 2% DMSO instead of inhibitor) against the inhibitor concentration. IC50 is defined as the inhibitor concentration blocking 50% of initial enzyme activity.

| SMILES | logD [1] | Papp [2] [×10⁻⁶ cm/s] | IC50 [3] [nM] | fold more potent compared to Ref. 3 ([3]; DCC-assay IC50 ratio vs Ref. 3 (A8)) [fold] |
| --- | --- | --- | --- | --- |
| Cc1c(C(=O)N[C@@H](CC/C=C/C(=O)N(C)C)C(=O)Nc2cccn(CC(=O)NC34CC5CC(C)(CC(C)(C5)C3)C4)c2=O)oc2ccccc12 [III-77, (S,E)-N^7-(1-(2-(3,5-dimethyladamantan-1-amino)-2-oxoethyl)-2-oxo-1,2-dihydropyridin-3-yl)-N^1,N^1-dimethyl-6-(3-methylbenzofuran-2-carboxamido)hept-2-enediamide] | 3 to 5 | 1 to 10 | 25 to 250 |  |
| COC(=O)/C=C/CC[C@H](NC(=O)c1snnc1C)C(=O)Nc1cccn(CC(=O)N[C@@H]2C[C@@H]3CC[C@H]2C3)c1=O [III-115, (S,E)-methyl 7-(1-(2-((1S,2R,4R)-bicyclo[2.2.1]heptan-2-ylamino)-2-oxoethyl)-2-oxo-1,2-dihydropyridin-3-ylamino)-6-(4-methyl-1,2,3-thiadiazole-5-carboxamido)-7-oxohept-2-enoate] | 1 to 3 | < 1 | < 25 |  |
| COC(=O)/C=C/CC[C@H](NC(=O)c1oc2ccccc2c1C)C(=O)Nc1cccn(CC(=O)NCC23CC4CC(CC(C4)C2)C3)c1=O [III-56, (S,E)-methyl 7-(1-(2-(1-adamantylmethylamino)-2-oxoethyl)-2-oxo-1,2-dihydropyridin-3-ylamino)-6-(3-methylbenzofuran-2-carboxamido)-7-oxohept-2-enoate] | 3 to 5 | 1 to 10 | 25 to 250 |  |
| COC(=O)/C=C/CC[C@H](NC(=O)c1cnnn1C)C(=O)Nc1cccn(CC(=O)NC23CC4(C)CC(C)(CC(C)(C4)C2)C3)c1=O [III-93, (S,E)-methyl 7-(1-(2-(3,5,7-trimethyl-1-adamantylamino)-2-oxoethyl)-2-oxo-1,2-dihydropyridin-3-ylamino)-6-(1-methyl-1H-1,2,3-triazole-5-carboxamido)-7-oxohept-2-enoate] | 1 to 3 | 1 to 10 | < 25 |  |
| COC(=O)/C=C/CC[C@H](NC(=O)c1cn[nH]n1)C(=O)Nc1cccn(CC(=O)NC2C3CC4CC(C3)CC2C4)c1=O (stereo partly drawn) [III-101, (S,E)-methyl 7-(1-(2-(2-adamantylamino)-2-oxoethyl)-2-oxo-1,2-dihydropyridin-3-ylamino)-7-oxo-6-(2H-1,2,3-triazole-4-carboxamido)hept-2-enoate] | 1 to 3 | < 1 | 25 to 250 |  |
| COC(=O)/C=C/CC[C@H](NC(=O)c1oc2ccccc2c1C)C(=O)Nc1cccn(CC(=O)NC23CC4CC(C)(CC(C)(C4)C2)C3)c1=O [III-46, (S,E)-methyl 7-(1-(2-(3,5-dimethyladamantan-1-amino)-2-oxoethyl)-2-oxo-1,2-dihydropyridin-3-ylamino)-6-(3-methylbenzofuran-2-carboxamido)-7-oxohept-2-enoate] | 3 to 5 | 1 to 10 | < 25 |  |
| COC(=O)/C=C/CC[C@H](NC(=O)c1cc2c(F)c(F)ccc2[nH]1)C(=O)Nc1cccn(CC(=O)NC2C3CC4CC(C3)CC2C4)c1=O (stereo partly drawn) [III-9, (S,E)-methyl 6-(4,5-difluoro-1H-indole-2-carboxamido)-7-(1-(2-(2-adamantylamino)-2-oxoethyl)-2-oxo-1,2-dihydropyridin-3-ylamino)-7-oxohept-2-enoate] | 3 to 5 | < 1 | < 25 |  |
| COC(=O)/C=C/CC[C@H](NC(=O)c1oc2ccccc2c1C)C(=O)Nc1cccn(CC(=O)NC23CC4CC(CC(C4)C2)C3)c1=O [III-45, (S,E)-methyl 7-(1-(2-(1-adamantylamino)-2-oxoethyl)-2-oxo-1,2-dihydropyridin-3-ylamino)-6-(3-methylbenzofuran-2-carboxamido)-7-oxohept-2-enoate] | 3 to 5 | 1 to 10 | 25 to 250 |  |
| CCC(CC)CNC(=O)Cn1cccc(NC(=O)[C@H](CC/C=C/C(=O)OC)NC(=O)c2cncn2C)c1=O [Ref. 2, reference compound] |  |  | 25 to 250 | 80 |

The remaining lines, values ahead:

| logD [1] | Papp [2] [×10⁻⁶ cm/s] | IC50 [3] [nM] | fold more potent compared to Ref. 3 ([3]; DCC-assay IC50 ratio vs Ref. 3 (A8)) [fold] | SMILES |
| --- | --- | --- | --- | --- |
| 3 to 5 | 1 to 10 | < 25 |  | COC(=O)/C=C/CC[C@H](NC(=O)c1oc2ccccc2c1C)C(=O)Nc1cccn(CC(=O)NC2C3CC4CC2CC(F)(C4)C3)c1=O (stereo partly drawn) [III-39, (S,E)-methyl 7-(1-(2-(5-fluoroadamantan-2-amino)-2-oxoethyl)-2-oxo-1,2-dihydropyridin-3-ylamino)-6-(3-methylbenzofuran-2-carboxamido)-7-oxohept-2-enoate] |
| 3 to 5 | < 1 | < 25 |  | COC(=O)/C=C/CC[C@H](NC(=O)c1csc(Br)c1)C(=O)Nc1cccn(CC(=O)NC2C3CC4CC(C3)CC2C4)c1=O (stereo partly drawn) [III-17, (S,E)-methyl 6-(5-bromothiophene-3-carboxamido)-7-(1-(2-(2-adamantylamino)-2-oxoethyl)-2-oxo-1,2-dihydropyridin-3-ylamino)-7-oxohept-2-enoate] |
| 3 to 5 | 1 to 10 | < 25 |  | COC(=O)/C=C/CC[C@H](NC(=O)c1cc(Br)sc1Br)C(=O)Nc1cccn(CC(=O)NC2C3CC4CC(C3)CC2C4)c1=O (stereo partly drawn) [III-16, (S,E)-methyl 6-(2,5-dibromothiophene-3-carboxamido)-7-(1-(2-(2-adamantylamino)-2-oxoethyl)-2-oxo-1,2-dihydropyridin-3-ylamino)-7-oxohept-2-enoate] |
| 1 to 3 | < 1 | 25 to 250 |  | COC(=O)/C=C/CC[C@H](NC(=O)c1ccnn1C)C(=O)Nc1cccn(CC(=O)N[C@H]2C[C@H]3CC[C@]2(C)C3(C)C)c1=O [III-122, (S,E)-methyl 6-(1-methyl-1H-pyrazole-5-carboxamido)-7-oxo-7-(2-oxo-1-(2-oxo-2-((1R,2S,4R)-1,7,7-trimethylbicyclo[2.2.1]heptan-2-ylamino)ethyl)-1,2-dihydropyridin-3-ylamino)hept-2-enoate] |
| 3 to 5 | 1 to 10 | < 25 |  | COC(=O)/C=C/CC[C@H](NC(=O)c1sc(C(F)(F)F)nc1C)C(=O)Nc1cccn(CC(=O)NC23CC4(C)CC(C)(CC(C)(C4)C2)C3)c1=O [III-95, (S,E)-methyl 7-(1-(2-(3,5,7-trimethyl-1-adamantylamino)-2-oxoethyl)-2-oxo-1,2-dihydropyridin-3-ylamino)-6-(4-methyl-2-(trifluoromethyl)thiazole-5-carboxamido)-7-oxohept-2-enoate] |
| 3 to 5 | < 1 | 25 to 250 |  | COC(=O)/C=C/CC[C@H](NC(=O)[C@@H]1C[C@H](Br)CN1)C(=O)Nc1cccn(CC(=O)NC2C3CC4CC(C3)CC2C4)c1=O (stereo partly drawn) [III-27, (S,E)-methyl 6-((2S,4S)-4-bromopyrrolidine-2-carboxamido)-7-(1-(2-(2-adamantylamino)-2-oxoethyl)-2-oxo-1,2-dihydropyridin-3-ylamino)-7-oxohept-2-enoate] |
|  |  | 25 to 250 |  | COC(=O)/C=C/CC[C@H](NC(=O)c1cn[nH]n1)C(=O)Nc1cccn(CC(=O)NC2C3CC4CC(C3)CC2C4)c1=O (stereo partly drawn) [III-102, (S,E)-methyl 7-(1-(2-(2-adamantylamino)-2-oxoethyl)-2-oxo-1,2-dihydropyridin-3-ylamino)-7-oxo-6-(1H-1,2,3-triazole-4-carboxamido)hept-2-enoate] |
